The values that follow come from patent publication US11345659B2, “Pipecolic esters for inhibition of the proteasome” (THE BOARD OF REGENTS OF THE UNIVERSY OF TEXAS SYSTEM, priority 2018, dated 2022).

Entries after “also recorded” stand apart in the source; their conditions may differ. A value given as a limit tells only on which side of the number the result lay.

Assay [1] addresses T1, 20 S human housekeeping proteasome (Homo sapiens, UniProt P25787+P25789).
T1 construct: purified from erythrocytes; purchased Enzo Life Sciences, Inc. (Farmingdale, N.Y.); host or cells: human erythrocytes
The assay is described as follows: ChT-L peptidase activity of 20 S proteasome activated with Rpt5 peptide. It is filed as biochemical. Particulars: tRpt5 added last (compound 3 before tRpt5), n=3.

The target in assay [2] is T2, 26 S proteasome (Homo sapiens, UniProt P25787+P25789).
T2 construct: purified from erythrocytes; purchased Enzo Life Sciences, Inc. (Farmingdale, N.Y.); host or cells: human erythrocytes
Description: 26 S proteasome challenged with mixture of three substrates (surrogate proteinase assay). In kind it is biochemical. Particulars: mixture of ChT-L, T-L and Casp-L substrates, 33.3 μM each; read-out: IC50, 26 S proteasome with substrates for all three peptidases. As for the experimental part:
Human housekeeping 20 S and 26 S and complexes purified from erythrocytes were purchased from Enzo Life Sciences, Inc. (Farmingdale, N.Y.). The 1 mg/ml stock 20 S proteasome was diluted to 0.2 mg/ml working solution in 50 mM Tris/HCl, pH 8 containing 20% glycerol (dilution buffer). For the 26 S proteasome stock, the dilution buffer was supplemented with 2 mM ATP, 1 mM MgCl2, and 1 mM DTT (dithiothreitol). The ChT-L peptidase activity was measured as arbitrary intensity units of fluorescence emitted by 7-amino-4-methylcoumarin (AMC) released from the canonical model peptide substrate succinyl-LeuLeuValTyr-methylcoumarin (SucLLVY-MCA; Bachem Bioscience Inc., Philadelphia, Pa.), used at concentration of 100 μM. Free AMC (Sigma-Aldrich, St. Louis, Mo.) was used as the standard. The Rpt5 C-terminal peptide was synthesized (standard solid-phase peptide chemistry) and purified to at least 98% purity by GenScript (Piscataway, N.J.). The Rpt5 peptide and the peptide substrate were dissolved in dimethylsulfoxide (DMSO) and such stock solutions were stored at −20° C. The total concentration of DMSO in final reaction mixtures never exceeded 3% (vol/vol).
The reaction was carried out in 96-well plates, in 100 μL of reaction mixture, for 1 hour at 37° C. In the case of 20 S proteasome, the reaction mixture consisted of 45 mM Tris/HCl, pH 8, 100 mM KCl with premixed 10 μM Rpt5 peptide and 100 μM Suc-LLVY-MCA, to which 200 ng (nearly […]) of proteasome and desired concentration of tested compounds in 1 μL of DMSO were added. […] The reaction rates were calculated from a linear segment of kinetic curves constructed from measurements in 1-minutes intervals (Fluoroskan Ascent plate reader; Thermo Fisher Scientific Inc., Waltham, Mass.). Reaction rates were calculated using a linear fit executed by Slope Analyzer and Enzyme Kinetics applications launched within Origin Pro 2017 (OriginLab). […]

For assay [3], the target named is T3, latent core 20 S proteasome (Homo sapiens, UniProt P25787+P25789).
T3 construct: purified from erythrocytes; purchased Enzo Life Sciences, Inc. (Farmingdale, N.Y.); host or cells: human erythrocytes
The assay is described as follows: PGPH peptidase activity of latent 20 S core. It is filed as biochemical.

Assay [4] has as its target T4, mTOR (Homo sapiens, UniProt P42345+P62942).
T4 construct: endogenous in cells; host or cells: RPMI 8226 (ATCC)
Description: Western blot of S6 phosphorylation in RPMI 8226 cells. In kind it is cell-based. Conditions: RPMI 8226, 24 hours; rapamycin 2 nM, compound 3 and B1 0.2 μM. As for the experimental part:
Human multiple myeloma RPMI 8226 cells were purchased from American Type Culture Collection (ATCC; Manassas, Va.) and cultured according to ATCC specifications. […] The content of live cells was determined by excluding the Trypan Blue-stained cells. The cells were counted with TC20 Automated Cell Counter (Bio-Rad Laboratories, Hercules, Calif.) and EC50 was calculated with Origin Pro 2017 (OriginLab Corporation, Northampton, Mass.). When indicated, the cells were harvested, washed twice in PBS, resuspended in dilution buffer and stored in −80° C. To prepare crude lysates the thawed preparations were vortexed with glass beads and centrifuged for 5 min 5,000×g (4° C.). The supernate was centrifuged for 20 min 14,000×g. The resulting supernate was used as “crude lysate.” SDS-PAGE was carried in 12% acrylamide, Tris-glycine gels from Invitrogen. Chameleon Duo (Li-Cor) and Rainbow RPN800E (GE Healthcare) molecular weight standards were separated on each gel alongside lysates. The proteins were transferred to nitrocellulose membrane in a semi-dry system. The membranes were probed with specific primary antibodies from Life Technologies (S6, PS6) and Li-Cor (COX IV), and then with secondary antibodies from Li-Cor. In each experiment visualization of S6, PS6 and COX IV was performed on the same membrane with Odyssey Infrared Imaging System (Li-Cor). […]
(In general: Immunoblotting shows a protein as a band on a membrane.)

Broadly, the IC50 is the concentration that inhibits the measured activity by half. Turning to `COc1cc(CCCOC(=O)[C@@H]2CCCCN2C(=O)OCc2ccccc2)cc(OC)c1OC` [Compound 3, 1-benzyl 2-(3-(3,4,5-trimethoxyphenyl)propyl) (S)-piperidine-1,2-dicarboxylate], the “remaining ChT-L activity” value in assay [1] was found to be 56%. In addition, the IC50 in assay [2] was 1200 nM; in assay [3] it was > 50000 nM. Besides, in assay [3] (10 μM compound, n=5, read-out: PGPH activity, % of control), the remaining activity at 10 µM stood at 99%. Besides, the remaining activity at 50 µM in assay [3] (50 μM compound, n=3, read-out: PGPH activity, % of control) worked out at 71%. The “activity of mTOR (phosphorylation of S6)” value in assay [4] is recorded as “neither B1 nor compound 3 affected the activity of mTOR; also recorded: did not inhibit the S6 phosphorylation”.
